# Assay results from patent publication US20080009418A1, “Selective Inhibitors” (Alchemia LTD., priority 2004, published 2008).
# What was measured:
# Details in all cases: compound at 10 μM
# Human Melanocortin (MC3) = biological target: T1, Human Melanocortin (MC3) (Homo sapiens, UniProt P41968); test: Radioligand binding, human melanocortin MC3 membranes, FlashPlate, [125I]-NDP-αMSH
# T1 construct: purchased Perkin Elmer Biosignal
# How it was run: (§1)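 Cloned human receptor membranes were coated onto FlashPlate wells and incubated with radioligand and compound (added from a 0.5 mM DMSO daughter plate) for 1 hour at room temperature in the dark. Scintillation counting gave percent inhibition, with DMSO defining total and reference ligand defining non-specific binding.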
# [1] = biological target: T2, Human neuropeptide Y (NPY-Y1) (Homo sapiens, UniProt P25929); test: Radioligand binding, human neuropeptide Y NPY-Y1 membranes, FlashPlate, [125I]-PYY
# T2 construct: purchased Perkin Elmer Biosignal
# T2 sequence (P25929 1-384): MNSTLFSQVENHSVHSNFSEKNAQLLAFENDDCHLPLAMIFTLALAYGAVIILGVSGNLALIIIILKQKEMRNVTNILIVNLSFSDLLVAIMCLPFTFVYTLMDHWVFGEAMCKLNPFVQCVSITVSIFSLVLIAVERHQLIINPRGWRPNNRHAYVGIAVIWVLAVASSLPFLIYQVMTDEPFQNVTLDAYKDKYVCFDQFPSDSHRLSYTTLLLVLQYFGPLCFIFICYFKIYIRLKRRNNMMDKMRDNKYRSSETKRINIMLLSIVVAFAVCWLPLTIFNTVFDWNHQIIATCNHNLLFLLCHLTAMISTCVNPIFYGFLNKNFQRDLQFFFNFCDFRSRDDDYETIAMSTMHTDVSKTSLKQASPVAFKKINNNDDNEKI
# How it was run: as §1
# Human Melanocortin (MC4) = biological target: T3, Human Melanocortin (MC4) (Homo sapiens, UniProt P32245); test: Radioligand binding, human melanocortin MC4 membranes, FlashPlate, [125I]-NDP-αMSH
# T3 construct: purchased Perkin Elmer Biosignal
# T3 sequence (P32245 whole entry): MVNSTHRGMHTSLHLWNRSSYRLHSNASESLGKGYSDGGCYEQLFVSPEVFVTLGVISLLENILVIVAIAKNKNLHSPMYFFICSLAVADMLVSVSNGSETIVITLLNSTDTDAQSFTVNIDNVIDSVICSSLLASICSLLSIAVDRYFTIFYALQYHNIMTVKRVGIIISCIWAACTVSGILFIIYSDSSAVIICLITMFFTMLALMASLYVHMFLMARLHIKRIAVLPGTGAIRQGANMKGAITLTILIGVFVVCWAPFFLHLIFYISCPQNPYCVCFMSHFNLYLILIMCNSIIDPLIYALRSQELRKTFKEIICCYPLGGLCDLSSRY
# How it was run: as §1
# Human κ-Opioid (KOP) = biological target: T4, Human κ-Opioid (KOP) (Homo sapiens, UniProt P41145); test: Radioligand binding, human κ-opioid (KOP) membranes, filtration, [3H]-Diprenorphine
# T4 construct: purchased Perkin Elmer Biosignal
# T4 sequence (P41145 whole entry): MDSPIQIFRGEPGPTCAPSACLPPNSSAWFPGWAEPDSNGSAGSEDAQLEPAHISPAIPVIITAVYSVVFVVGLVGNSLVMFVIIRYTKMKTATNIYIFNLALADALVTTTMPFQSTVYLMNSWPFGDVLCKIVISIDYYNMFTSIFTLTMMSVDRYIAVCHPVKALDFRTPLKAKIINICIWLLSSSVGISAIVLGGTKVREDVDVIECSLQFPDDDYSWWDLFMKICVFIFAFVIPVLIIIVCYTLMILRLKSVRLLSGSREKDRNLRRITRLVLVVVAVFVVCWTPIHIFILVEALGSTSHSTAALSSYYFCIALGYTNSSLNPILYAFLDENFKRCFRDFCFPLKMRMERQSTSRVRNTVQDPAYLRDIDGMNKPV
# How it was run: (§2)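 Percent inhibition of radioligand binding measured on recombinant human membranes: NK1 with [125I]-Substance P, KOP with [3H]-Diprenorphine. Incubation 1 h at room temperature, then harvest onto 0.3% PEI-soaked filters, cold Tris-HCl pH 7.4 washes and scintillation counting; non-specific binding from reference ligand wells.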
# Human melanocortin (MC5) = biological target: T5, Human melanocortin (MC5) (Homo sapiens, UniProt P33032); test: Radioligand binding, human melanocortin MC5 membranes, FlashPlate, [125I]-NDP-αMSH
# T5 construct: purchased Perkin Elmer Biosignal
# T5 sequence (P33032 whole entry): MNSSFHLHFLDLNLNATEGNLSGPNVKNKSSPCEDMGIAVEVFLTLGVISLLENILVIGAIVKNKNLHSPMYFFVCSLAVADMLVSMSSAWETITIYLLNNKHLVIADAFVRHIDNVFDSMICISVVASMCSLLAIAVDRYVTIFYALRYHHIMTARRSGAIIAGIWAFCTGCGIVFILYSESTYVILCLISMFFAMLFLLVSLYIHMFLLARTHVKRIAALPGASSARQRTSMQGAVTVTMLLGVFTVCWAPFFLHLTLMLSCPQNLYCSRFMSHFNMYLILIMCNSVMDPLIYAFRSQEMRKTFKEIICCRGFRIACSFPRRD
# How it was run: as §1
# Human μ-opioid (MOP) = biological target: T6, Human μ-opioid (MOP) (Homo sapiens, UniProt P35372); test: Radioligand binding, human μ-opioid (MOP) membranes, FlashPlate, [3H]-Naloxone
# T6 construct: purchased Perkin Elmer Biosignal
# T6 sequence (P35372 whole entry): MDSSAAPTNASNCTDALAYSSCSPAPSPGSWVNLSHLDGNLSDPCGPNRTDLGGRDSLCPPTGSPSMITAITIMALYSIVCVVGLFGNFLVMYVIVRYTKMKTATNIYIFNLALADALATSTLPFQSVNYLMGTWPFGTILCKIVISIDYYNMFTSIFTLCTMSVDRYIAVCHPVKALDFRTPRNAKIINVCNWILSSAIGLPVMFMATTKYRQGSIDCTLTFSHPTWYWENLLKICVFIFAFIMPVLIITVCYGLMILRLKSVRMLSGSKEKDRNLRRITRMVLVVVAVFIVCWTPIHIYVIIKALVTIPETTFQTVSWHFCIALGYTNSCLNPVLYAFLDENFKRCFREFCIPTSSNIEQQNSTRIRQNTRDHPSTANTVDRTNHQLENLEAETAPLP
# How it was run: as §1
# [2] = biological target: T7, Human melanin-concentrating hormone (MCH1) (Homo sapiens, UniProt Q99705); test: Radioligand binding, human melanin-concentrating hormone MCH1 membranes, FlashPlate, [125I]-S36057
# T7 construct: purchased Perkin Elmer Biosignal
# T7 sequence (Q99705 whole entry): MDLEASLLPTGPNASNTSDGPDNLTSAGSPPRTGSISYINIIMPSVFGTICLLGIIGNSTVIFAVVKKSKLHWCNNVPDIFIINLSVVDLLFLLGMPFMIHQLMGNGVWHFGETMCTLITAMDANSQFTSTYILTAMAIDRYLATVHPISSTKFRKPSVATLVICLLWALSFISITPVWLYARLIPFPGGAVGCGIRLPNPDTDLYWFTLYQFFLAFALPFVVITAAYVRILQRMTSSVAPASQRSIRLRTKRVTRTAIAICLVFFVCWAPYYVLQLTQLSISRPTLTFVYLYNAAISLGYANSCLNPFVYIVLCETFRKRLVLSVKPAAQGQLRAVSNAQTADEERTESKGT
# How it was run: as §1
# Human neurokinin (NK1) = biological target: T8, Human neurokinin (NK1) (Homo sapiens, UniProt P25103); test: Radioligand binding, human neurokinin NK1 membranes, filtration, [125I]-Substance P
# T8 construct: purchased Perkin Elmer Biosignal
# T8 sequence (P25103 whole entry): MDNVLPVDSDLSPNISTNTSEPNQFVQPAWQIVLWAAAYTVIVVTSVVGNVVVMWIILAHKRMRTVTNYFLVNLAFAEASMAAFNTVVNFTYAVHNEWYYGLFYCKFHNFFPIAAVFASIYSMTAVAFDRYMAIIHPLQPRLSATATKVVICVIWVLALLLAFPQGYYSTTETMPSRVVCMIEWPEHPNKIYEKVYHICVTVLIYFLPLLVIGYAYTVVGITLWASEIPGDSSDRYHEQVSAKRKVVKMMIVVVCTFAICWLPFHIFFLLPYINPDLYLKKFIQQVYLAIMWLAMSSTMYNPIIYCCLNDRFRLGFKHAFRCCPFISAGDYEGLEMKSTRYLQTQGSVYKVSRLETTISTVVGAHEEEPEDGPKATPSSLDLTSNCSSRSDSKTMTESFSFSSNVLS
# How it was run: as §2
# Mouse urotensin (mUR2) = biological target: T9, Mouse urotensin (mUR2) (Mus musculus, UniProt Q8VIH9); test: Radioligand binding, mouse urotensin mUR2 membranes, FlashPlate, [125I]-Urotensin II
# T9 construct: purchased Perkin Elmer Biosignal
# T9 sequence (Q8VIH9 1-385): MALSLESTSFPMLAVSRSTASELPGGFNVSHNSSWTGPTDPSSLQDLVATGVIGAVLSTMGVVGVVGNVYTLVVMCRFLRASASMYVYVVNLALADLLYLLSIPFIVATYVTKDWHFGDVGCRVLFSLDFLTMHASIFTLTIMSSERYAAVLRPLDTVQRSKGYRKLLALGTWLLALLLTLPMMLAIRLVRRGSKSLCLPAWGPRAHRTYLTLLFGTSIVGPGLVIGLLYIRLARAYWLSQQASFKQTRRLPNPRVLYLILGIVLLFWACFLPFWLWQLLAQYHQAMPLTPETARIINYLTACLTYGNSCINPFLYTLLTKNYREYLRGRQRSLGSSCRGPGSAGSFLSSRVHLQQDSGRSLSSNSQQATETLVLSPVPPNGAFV
# How it was run: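 Cloned mouse urotensin (mUR2) receptor membranes from Perkin Elmer Biosignal were immobilized in FlashPlate microplates using a proprietary coating. Each well got 19.5 μl buffer, then 0.5 μl of DMSO, reference ligand, or compound. Adding 5 μl of [125I]-Urotensin II, diluted to 5× final concentration in binding buffer, started binding. Plates were sealed with TopSeal-A and incubated 1 hour at room temperature in the dark. Wells were counted for 30 seconds each on a TopCount after a 60-second delay, and percentage inhibition was calculated.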
# Human opioid (ORL1) = biological target: T10, Human opioid (ORL1) (Homo sapiens, UniProt P41146); test: Radioligand binding, human opioid ORL1 membranes, FlashPlate, [125I]-Nociceptin
# T10 construct: purchased Perkin Elmer Biosignal
# T10 sequence (P41146 whole entry): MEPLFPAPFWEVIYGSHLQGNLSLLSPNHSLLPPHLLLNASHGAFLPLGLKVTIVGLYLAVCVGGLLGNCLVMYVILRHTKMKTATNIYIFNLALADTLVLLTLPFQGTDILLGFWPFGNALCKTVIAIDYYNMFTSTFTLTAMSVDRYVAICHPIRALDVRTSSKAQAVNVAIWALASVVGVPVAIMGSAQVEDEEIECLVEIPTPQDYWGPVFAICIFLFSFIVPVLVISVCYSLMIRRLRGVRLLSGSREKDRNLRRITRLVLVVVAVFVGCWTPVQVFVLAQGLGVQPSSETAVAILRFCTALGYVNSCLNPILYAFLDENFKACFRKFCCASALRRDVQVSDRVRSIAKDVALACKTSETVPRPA
# How it was run: as §1
# Human δ-opioid (DOP) = biological target: T11, Human δ-opioid (DOP) (Homo sapiens, UniProt P41143); test: Radioligand binding, human δ-opioid (DOP) membranes, FlashPlate, [3H]-Bremazocine
# T11 construct: purchased Perkin Elmer Biosignal
# T11 sequence (P41143 whole entry): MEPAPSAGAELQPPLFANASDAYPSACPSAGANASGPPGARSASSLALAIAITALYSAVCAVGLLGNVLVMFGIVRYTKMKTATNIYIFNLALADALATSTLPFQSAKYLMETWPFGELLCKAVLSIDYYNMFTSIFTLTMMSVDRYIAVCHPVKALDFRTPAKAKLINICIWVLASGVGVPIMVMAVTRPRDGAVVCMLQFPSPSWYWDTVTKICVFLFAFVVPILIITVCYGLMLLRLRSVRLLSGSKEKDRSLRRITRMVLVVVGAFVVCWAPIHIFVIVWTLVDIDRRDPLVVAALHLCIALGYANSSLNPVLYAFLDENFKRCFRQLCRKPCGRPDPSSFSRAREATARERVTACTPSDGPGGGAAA
# How it was run: as §1
# [3] = [125I]-Urotensin II, FlashPlate
# T1 sequence (P41968 whole entry): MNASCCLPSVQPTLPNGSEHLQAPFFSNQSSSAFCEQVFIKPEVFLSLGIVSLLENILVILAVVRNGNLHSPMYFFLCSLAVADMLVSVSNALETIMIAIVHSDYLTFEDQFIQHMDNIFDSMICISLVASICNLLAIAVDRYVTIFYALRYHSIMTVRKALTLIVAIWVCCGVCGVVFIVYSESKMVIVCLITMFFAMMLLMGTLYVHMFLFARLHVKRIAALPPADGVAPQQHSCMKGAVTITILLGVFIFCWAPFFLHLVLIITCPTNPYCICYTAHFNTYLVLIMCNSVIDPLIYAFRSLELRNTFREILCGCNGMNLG
smiles,measurement,setting,value
COC[C@H]1OC(OCc2cccc(O)c2)[C@H](NC(=O)CCCN)[C@@H](OCc2ccc(-c3ccccc3)cc2)[C@@H]1O (stereo partly shown) [compound 143],"A3 radioligand binding, percentage inhibition",Human Melanocortin (MC3); [125I]-NDP-αMSH,− (“−” indicates less than 50% inhibition at 10 μM)
same,"A9 radioligand binding, percentage inhibition",[1]; [125I]-PYY,− (“−” indicates less than 50% inhibition at 10 μM)
same,"A4 radioligand binding, percentage inhibition",Human Melanocortin (MC4); [125I]-NDP-αMSH,− (“−” indicates less than 50% inhibition at 10 μM)
same,"A2 radioligand binding, percentage inhibition",Human κ-Opioid (KOP); [3H]-Diprenorphine,− (“−” indicates less than 50% inhibition at 10 μM)
same,"A5 radioligand binding, percentage inhibition",Human melanocortin (MC5); [125I]-NDP-αMSH,− (“−” indicates less than 50% inhibition at 10 μM)
same,"A7 radioligand binding, percentage inhibition",Human μ-opioid (MOP); [3H]-Naloxone,+ (“+” indicates greater than 50% inhibition at 10 μM)
same,"A6 radioligand binding, percentage inhibition",[2]; [125I]-S36057,− (“−” indicates less than 50% inhibition at 10 μM)
same,"A8 radioligand binding, percentage inhibition",Human neurokinin (NK1); [125I]-Substance P,+ (“+” indicates greater than 50% inhibition at 10 μM)
same,"A11 radioligand binding, percentage inhibition",Mouse urotensin (mUR2); [125I]-Urotensin II,− (“−” indicates less than 50% inhibition at 10 μM)
same,"A10 radioligand binding, percentage inhibition",Human opioid (ORL1); [125I]-Nociceptin,− (“−” indicates less than 50% inhibition at 10 μM)
same,"A1 radioligand binding, percentage inhibition",Human δ-opioid (DOP); [3H]-Bremazocine,− (“−” indicates less than 50% inhibition at 10 μM)
CSC1OC(COCc2ccccc2)C(O)C(OCc2ccc(Cl)cc2)C1NC(=O)CCN (stereo not shown) [compound 266],A3: inhibition of radioligand binding,"Human Melanocortin (MC3); [125I]-NDP-αMSH, FlashPlate",− (“−” indicates less than 50% inhibition at 10 μM)
same,A9: inhibition of radioligand binding,"[1]; [125I]-PYY, FlashPlate",− (“−” indicates less than 50% inhibition at 10 μM)
same,A4: inhibition of radioligand binding,"Human Melanocortin (MC4); [125I]-NDP-αMSH, FlashPlate",− (“−” indicates less than 50% inhibition at 10 μM)
same,A2: inhibition of radioligand binding,"Human κ-Opioid (KOP); [3H]-Diprenorphine, filtration",− (“−” indicates less than 50% inhibition at 10 μM)
same,A5: inhibition of radioligand binding,"Human melanocortin (MC5); [125I]-NDP-αMSH, FlashPlate",− (“−” indicates less than 50% inhibition at 10 μM)
same,A7: inhibition of radioligand binding,"Human μ-opioid (MOP); [3H]-Naloxone, FlashPlate",− (“−” indicates less than 50% inhibition at 10 μM)
same,A6: inhibition of radioligand binding,"[2]; [125I]-S36057, FlashPlate",− (“−” indicates less than 50% inhibition at 10 μM)
same,A8: inhibition of radioligand binding,"Human neurokinin (NK1); [125I]-Substance P, filtration",+ (“+” indicates greater than 50% inhibition at 10 μM)
same,A11: inhibition of radioligand binding,Mouse urotensin (mUR2); [3],− (“−” indicates less than 50% inhibition at 10 μM)
same,A10: inhibition of radioligand binding,"Human opioid (ORL1); [125I]-Nociceptin, FlashPlate",− (“−” indicates less than 50% inhibition at 10 μM)
same,A1: inhibition of radioligand binding,"Human δ-opioid (DOP); [3H]-Bremazocine, FlashPlate",− (“−” indicates less than 50% inhibition at 10 μM)
N=C(N)NCCC(=O)NC1C(OCc2ccc(Cl)cc2)OC(COCc2ccccc2)C(O)C1OCc1ccc(Cl)cc1 (stereo not shown) [compound 427],A3: inhibition of radioligand binding,"Human Melanocortin (MC3); [125I]-NDP-αMSH, human MC3 membranes",+ (“+” indicates greater than 50% inhibition at 10 μM)
same,A9: inhibition of radioligand binding,"[1]; [125I]-PYY, human NPY-Y1 membranes",− (“−” indicates less than 50% inhibition at 10 μM)
same,A4: inhibition of radioligand binding,"Human Melanocortin (MC4); [125I]-NDP-αMSH, human MC4 membranes",+ (“+” indicates greater than 50% inhibition at 10 μM)
same,A2: inhibition of radioligand binding,"Human κ-Opioid (KOP); [3H]-Diprenorphine, human KOP membranes",− (“−” indicates less than 50% inhibition at 10 μM)
same,A5: inhibition of radioligand binding,"Human melanocortin (MC5); [125I]-NDP-αMSH, human MC5 membranes",+ (“+” indicates greater than 50% inhibition at 10 μM)
same,A7: inhibition of radioligand binding,"Human μ-opioid (MOP); [3H]-Naloxone, human MOP membranes",− (“−” indicates less than 50% inhibition at 10 μM)
same,A6: inhibition of radioligand binding,"[2]; [125I]-S36057, human MCH1 membranes",+ (“+” indicates greater than 50% inhibition at 10 μM)
same,A8: inhibition of radioligand binding,"Human neurokinin (NK1); [125I]-Substance P, human NK1 membranes",+ (“+” indicates greater than 50% inhibition at 10 μM)
same,A11: inhibition of radioligand binding,"Mouse urotensin (mUR2); [125I]-Urotensin II, mouse mUR2 membranes",− (“−” indicates less than 50% inhibition at 10 μM)
same,A10: inhibition of radioligand binding,"Human opioid (ORL1); [125I]-Nociceptin, human ORL1 membranes",+ (“+” indicates greater than 50% inhibition at 10 μM)
same,A1: inhibition of radioligand binding,"Human δ-opioid (DOP); [3H]-Bremazocine, human DOP membranes",− (“−” indicates less than 50% inhibition at 10 μM)
CO[C@H]1[C@H](O)[C@@H](COCc2ccccc2)OC(OCc2ccc(-c3ccccc3)cc2)[C@@H]1NC(=O)CCNC(=N)N (stereo partly shown) [compound 59],A3 radioligand binding inhibition,Human Melanocortin (MC3); human melanocortin MC3 membranes,− (“−” indicates less than 50% inhibition at 10 μM)
same,A9 radioligand binding inhibition,[1]; human NPY-Y1 membranes,− (“−” indicates less than 50% inhibition at 10 μM)
same,A4 radioligand binding inhibition,Human Melanocortin (MC4); human melanocortin MC4 membranes,− (“−” indicates less than 50% inhibition at 10 μM)
same,A2 radioligand binding inhibition,Human κ-Opioid (KOP); human κ-opioid (KOP) membranes,+ (“+” indicates greater than 50% inhibition at 10 μM)
same,A5 radioligand binding inhibition,Human melanocortin (MC5); human melanocortin MC5 membranes,+ (“+” indicates greater than 50% inhibition at 10 μM)
same,A7 radioligand binding inhibition,Human μ-opioid (MOP); human μ-opioid (MOP) membranes,+ (“+” indicates greater than 50% inhibition at 10 μM)
same,A6 radioligand binding inhibition,[2]; human MCH1 membranes,− (“−” indicates less than 50% inhibition at 10 μM)
same,A8 radioligand binding inhibition,Human neurokinin (NK1); human neurokinin NK1 membranes,+ (“+” indicates greater than 50% inhibition at 10 μM)
same,A11 radioligand binding inhibition,Mouse urotensin (mUR2); mouse urotensin mUR2 membranes,− (“−” indicates less than 50% inhibition at 10 μM)
same,A10 radioligand binding inhibition,Human opioid (ORL1); human ORL1 membranes,− (“−” indicates less than 50% inhibition at 10 μM)
same,A1 radioligand binding inhibition,Human δ-opioid (DOP); human δ-opioid (DOP) membranes,− (“−” indicates less than 50% inhibition at 10 μM)
CSC1OC(COCc2ccc(-c3ccccc3)cc2)C(O)C(OCc2ccccc2)C1NC(=O)CCCNC(=N)N (stereo not shown) [compound 259],A3: inhibition of radioligand binding,"Human Melanocortin (MC3); [125I]-NDP-αMSH, FlashPlate",− (“−” indicates less than 50% inhibition at 10 μM)
same,A9: inhibition of radioligand binding,"[1]; [125I]-PYY, FlashPlate",− (“−” indicates less than 50% inhibition at 10 μM)
same,A4: inhibition of radioligand binding,"Human Melanocortin (MC4); [125I]-NDP-αMSH, FlashPlate",+ (“+” indicates greater than 50% inhibition at 10 μM)
same,A2: inhibition of radioligand binding,"Human κ-Opioid (KOP); [3H]-Diprenorphine, filtration",− (“−” indicates less than 50% inhibition at 10 μM)
same,A5: inhibition of radioligand binding,"Human melanocortin (MC5); [125I]-NDP-αMSH, FlashPlate",− (“−” indicates less than 50% inhibition at 10 μM)
same,A7: inhibition of radioligand binding,"Human μ-opioid (MOP); [3H]-Naloxone, FlashPlate",− (“−” indicates less than 50% inhibition at 10 μM)
same,A6: inhibition of radioligand binding,"[2]; [125I]-S36057, FlashPlate",− (“−” indicates less than 50% inhibition at 10 μM)
same,A8: inhibition of radioligand binding,"Human neurokinin (NK1); [125I]-Substance P, filtration",+ (“+” indicates greater than 50% inhibition at 10 μM)
same,A11: inhibition of radioligand binding,Mouse urotensin (mUR2); [3],− (“−” indicates less than 50% inhibition at 10 μM)
same,A10: inhibition of radioligand binding,"Human opioid (ORL1); [125I]-Nociceptin, FlashPlate",− (“−” indicates less than 50% inhibition at 10 μM)
same,A1: inhibition of radioligand binding,"Human δ-opioid (DOP); [3H]-Bremazocine, FlashPlate",− (“−” indicates less than 50% inhibition at 10 μM)
